Experimental data from US20250197363A1, “THIADIAZOLE COMPOUND, AND PHARMACEUTICAL COMPOSITION FOR PREVENTING OR TREATING INFLAMMATORY DISEASES, INCLUDING SAME” (Cureverse Incorporated, priority 2022, published 2025).

Assays:
[1] = molecular target: PPARδ ligand-binding domain (LBD) (Homo sapiens (Human), UniProt Q03181); assay: PPARδ activation, TR-FRET coactivator peptide recruitment (enzyme activity EC50); assay type: biochemical; conditions: GST-PPARδ LBD 5 nM, read-out: Enzymatic activity (EC50)
Chain of PPARδ ligand-binding domain (LBD) (Q03181 211-439): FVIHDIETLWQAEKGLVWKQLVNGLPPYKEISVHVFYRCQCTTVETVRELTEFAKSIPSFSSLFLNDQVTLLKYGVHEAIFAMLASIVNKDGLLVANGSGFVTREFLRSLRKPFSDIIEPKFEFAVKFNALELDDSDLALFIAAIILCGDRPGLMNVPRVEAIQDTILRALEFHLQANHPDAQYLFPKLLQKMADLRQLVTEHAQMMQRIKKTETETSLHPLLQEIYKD

TNF-α = TNF-α secretion, cytometric bead array; assay type: cell-based; conditions: LPS-stimulated Raw264.7, 24 hours; 12 μM, 25 μM, 50 μM
Excerpt: (§1) The supernatant was dispensed using the same method as used for measuring NO. High amounts of TNF-α and IL-6 in the supernatant were quantified using the multiplex bead-based immunoassay (BD™ Cytometric Bead Array) system and flow cytometry (BD Biosciences).
(§2) LPS, well known as an endotoxin present in the outer cell membrane of Gram-negative bacteria, stimulates macrophages or monocytes to promote the secretion of inflammatory cytokines such as tumor necrosis factor-α (TNF-α), interleukin-1l (IL-1), and interleukin-6 (IL-6). Accordingly, in order to analyze the effect of the compound of Example 1 on inhibiting cytokine secretion, RAW264.7 cells were cultured for 24 hours by adding 1 mg/mL of LPS and the compound of Example 1 at concentrations of 0, 12 μM, 25 μM, and 50 μM, and the concentrations of IL-6 and TNFα in the culture supernatant were measured.

pIKKαβ = pIKKαβ (Mus musculus (Mouse), UniProt O88351+Q60680); assay: pIKKαβ protein expression, Western blot; assay type: cell-based; conditions: LPS-stimulated Raw264.7; 12 μM, 25 μM, 50 μM
Protocol: (§3) The cells were washed twice with cold PBS and lysed with RIPA buffer (Roche) containing a complete protease inhibitor cocktail. Protein concentration was quantified using the BCA protein assay kit (Pierce, IL, USA), and 30 μL of lysate was separated by 10% SDS-PAGE. The separated proteins were transferred to a polyvinylidene difluoride (PVDF) membrane (Biorad, CA, USA) at 70 mA for 1 hour and 30 minutes, then blocked with tris-buffered saline (TBST; pH 7.5) containing 50 mg/mL skim milk at room temperature for 2 hours. As antibodies to examine the expression levels of iNOS and pIKKαβ, anti-iNOS and pIKKαβ were used, diluted 1:1000 and reacted at room temperature for 2 hours, followed by washing three times with TBST. As secondary antibodies, horseradish peroxidase (HRP)-conjugated anti-mouse IgG and anti-rabbit IgG were diluted 1:2000 and reacted at room temperature for 1 hour, followed by washing three times with TBST. Peroxidase activity was detected using ECL-Plus according to the manufacturer's protocol.
Nuclear factor-kappa B (NF-κB), which plays an important role in inflammatory responses, is a transcription factor that regulates the synthesis of various cytokines, chemokines, and growth factors. […]

[2] = test system: macrophage infiltration into carrageenan-injected sole; assay: Macrophage tracking by fluorescence imaging in carrageenan-induced acute inflammation; assay type: in vivo, mouse; conditions: C57BL/6 mice, 50 mg/kg oral, 6 hours after inducing inflammation, versus vehicle group
Protocol: 2 mL of thioglycollate medium (BD, USA) was injected into the abdominal cavity of a C57Bl/6 mouse, and three days later, the mouse was cervically dislocated, and 8 mL of Dulbecco's modified Eagle's medium (DMEM) was injected into the abdominal cavity to collect cells. After centrifugation, the cells were suspended in DMEM containing 10% fetal bovine serum (FBS) and 1% penicillin-streptomycin and cultured in a 5% CO2 incubator at 37° C. for 2 hours. Non-adherent cells were removed, and the remaining cells were used for experiments.
The acute anti-inflammatory activity of the example compound was evaluated using a macrophage tracking technique with fluorescence imaging. Macrophages extracted from the mouse abdominal cavity were labeled with Vybrant™ DiD Cell-Labeling Solution and then administered to the mouse via intravenous injection. The next day, 50 mg/kg of the example compound was orally administered, and 1 hour later, a 0.1% Carrageenan (CG) solution or PBS was subcutaneously injected into the right or left sole of the mouse. Fluorescent images were obtained using IVIS Lumina III at the designated time.
The inflammation model induced by λ-carrageenan in the mouse foot region is an acute arthritis model and is useful when checking the effect of suppressing edema due to osteoarthritis. […]

[3] = test system: LPS-stimulated Raw264.7 cells; assay: Nitric oxide (NO) production, Griess reagent; assay type: cell-based; conditions: LPS-stimulated Raw264.7, 24 hours
Protocol: The concentration of NO was measured using the nitrite concentration in the culture medium with the Griess reagent system (Promega). Raw264.7 cells were adjusted to 2.5×10^5 cells/mL using DMEM medium, inoculated into 24-well plates, and pre-cultured for 20 hours in a 5% CO2 incubator. The cells were treated with […] of LPS and various concentrations of the example compounds and recultured for 24 hours. After obtaining the supernatant of the culture medium, the NO concentration was measured using the Griess reagent system according to the protocol provided by the manufacturer. The absorbance was measured at 540 nm using a microplate reader [BMG Labtech (located in Offenburg, Germany)]. The concentration of NO in the cell culture medium was calculated by comparing it with a standard curve for each concentration of sodium nitrite (NaNO2).
1 mg/mL lipopolysaccharide (LPS) and the compounds of Example 1 at concentrations of 0, 12 μM, 25 μM, and 50 μM were added to Raw264.7 cells, cultured for 24 hours, and changes in NO concentration in the upper layer of the culture were analyzed.

RAW 264.7 cells = assay: Cytotoxicity, CCK-8 assay; assay type: cell-based; conditions: Raw264.7 cells; 12 μM, 25 μM, 50 μM
Protocol: To evaluate the cytotoxicity of the sample, cell proliferation was tested using a cell counting kit [CCK-8; Dojindo Laboratories (Tokyo, Japan)]. RAW 264.7 cell 1×10^4 cells/mL were dispensed into a well plate, and after pre-culturing for 20 hours, […] of LPS and example compounds were added at different concentrations and cultured for 24 hours in an incubator at 37° C. and 5% CO2. After culturing, 10 μl CCK-8 reagent was added and recultured for 1 to 2 hours, and the absorbance was measured. The absorbance was measured at 450 nm using a microplate reader [BMG Labtech (located in Offenburg, Germany)].
In order to evaluate the cytotoxicity of the compound of Example 1, Raw264.7 cells, a macrophage cell line, were treated with the compound of Example 1 at concentrations of 0, 12 μM, 25 μM, and 50 μM, respectively, and then CCK8 assay was performed according to <Experiment Method> 3 above. […] Specifically, cell proliferation was similar to that of the vehicle group even at a concentration of up to 50 μM, and no significance was detected.

NF-κB = assay: NF-κb promoter-luciferase assay; assay type: cell-based; conditions: LPS-treated Raw264.7/NF-κb-luciferase cells; 12 μM, 25 μM, 50 μM
Protocol: Raw264.7/NF-kb-luc cells were treated with 1 mg/mL LPS and various concentrations of compounds using the same method as used for measuring NO. 16 hours later, after adding the D-luciferin solution to the cells, luminescence images were obtained using the IVIS Lumina III. Quantification of the luminescence images was performed using Living Imaging software.
Nuclear factor-kappa B (NF-κB), which plays an important role in inflammatory responses, is a transcription factor that regulates the synthesis of various cytokines, chemokines, and growth factors. NFκB is composed of p50 and p65, enters the nucleus, acts as a transcription factor, and synthesizes iNOS, COX-2, and inflammation-related cytokines, and generally binds to the inhibitor NF-κBα (IκBα) in the cytoplasm, thereby inhibiting the action of NF-κB. In order to confirm whether NF-κb-related cell signaling induced in Raw264.7 cells was affected by the compound of Example 1, NF-κb promoter-luciferase analysis and pIKKαβ expression change analysis were performed in Raw264.7 cells using 1 mg/mL LPS and the compound of Example 1 at concentrations of 0, 12 μM, 25 μM, and 50 μM.

iNOS = iNOS (Mus musculus (Mouse), UniProt P29477); assay: iNOS protein expression, Western blot; assay type: cell-based; conditions: LPS-stimulated Raw264.7; 12 μM, 25 μM, 50 μM
Protocol: as §3

IL-6 = IL-6 secretion, cytometric bead array; assay type: cell-based; conditions: LPS-stimulated Raw264.7, 24 hours; 12 μM, 25 μM, 50 μM
Excerpt: as §1, §2

Row | Structure (SMILES) | EC50 [1] [nM] | further results
1 | Cc1cc(SCc2nnc(-c3ccc(C(F)(F)F)cc3)s2)ccc1OC(C)(C)C(=O)O [Example 3, 2-methyl-2-(2-methyl-4-(((5-(4-(trifluoromethyl)phenyl)-1,3,4-thiadiazol-2-yl)methyl)thio)phenoxy)propanoic acid] | 374 | –
2 | Cc1cc(SCc2nnc(-c3ccc(C(F)(F)F)cc3)s2)ccc1OC(C)C(=O)O (stereo not shown) [Example 2, 2-(2-methyl-4-(((5-(4-(trifluoromethyl)phenyl)-1,3,4-thiadiazol-2-yl)methyl)thio)phenoxy)propanoic acid] | 420 | –
3 | Cc1ccc(-c2nnc(CSc3ccc(OC(C)(C)C(=O)O)c(C)c3)s2)cc1 [Example 24, 2-methyl-2-(2-methyl-4-(((5-(p-tolyl)-1,3,4-thiadiazol-2-yl)methyl)thio)phenoxy)propanoic acid] | 1250 | –
4 | Cc1cc(SCc2nnc(-c3ccc(F)c(Cl)c3)s2)ccc1OCC(=O)O [Example 16, 2-(4-(((5-(3-chloro-4-fluorophenyl)-1,3,4-thiadiazol-2-yl)methyl)thio)-2-methylphenoxy)acetic acid] | 1350 | –
5 | Cc1cc(SCc2nnc(-c3ccc(F)c(F)c3)s2)ccc1OCC(=O)O [Example 12, 2-(4-(((5-(3,4-difluorophenyl)-1,3,4-thiadiazol-2-yl)methyl)thio)-2-methylphenoxy)acetic acid] | 663 | –
6 | Cc1cc(SCc2nnc(-c3ccc(F)cc3)s2)ccc1OCC(=O)O [Example 9, 2-(4-(((5-(4-fluorophenyl)-1,3,4-thiadiazol-2-yl)methyl)thio)-2-methylphenoxy)acetic acid] | 2440 | –
7 | Cc1cc(SCc2nnc(-c3ccc(C(F)(F)F)c(F)c3)s2)ccc1OC(C)(C)C(=O)O [Example 21, 2-(4-(((5-(3-fluoro-4-(trifluoromethyl)phenyl)-1,3,4-thiadiazol-2-yl)methyl)thio)-2-methylphenoxy)-2-methylpropanoic acid] | 2660 | –
8 | Cc1cc(SCc2nnc(-c3ccc(F)c(F)c3)s2)ccc1OC(C)C(=O)O (stereo not shown) [Example 13, 2-(4-(((5-(3,4-difluorophenyl)-1,3,4-thiadiazol-2-yl)methyl)thio)-2-methylphenoxy)propanoic acid] | 6160 | –
9 | Cc1ccc(-c2nnc(CSc3ccc(OC(C)C(=O)O)c(C)c3)s2)cc1 (stereo not shown) [Example 23, 2-(2-methyl-4-(((5-(p-tolyl)-1,3,4-thiadiazol-2-yl)methyl)thio)phenoxy)propanoic acid] | 5700 | –
10 | Cc1cc(SCc2nnc(-c3cc(F)c(F)c(F)c3)s2)ccc1OCC(=O)O [Example 15, 2-(2-methyl-4-(((5-(3,4,5-trifluorophenyl)-1,3,4-thiadiazol-2-yl)methyl)thio)phenoxy)acetic acid] | 4010 | –
11 | Cc1cc(SCc2nnc(-c3ccc(C(F)(F)F)cc3)s2)ccc1OCC(=O)NC#N [Example 8, N-cyano-2-(2-methyl-4-(((5-(4-(trifluoromethyl)phenyl)-1,3,4-thiadiazol-2-yl)methyl)thio)phenoxy)acetamide] | 504 | –
12 | Cc1cc(SCc2nnc(-c3ccc(OC(F)(F)F)cc3)s2)ccc1OC(C)C(=O)O (stereo not shown) [Example 26, 2-(2-methyl-4-(((5-(4-(trifluoromethoxy)phenyl)-1,3,4-thiadiazol-2-yl)methyl)thio)phenoxy)propanoic acid] | 1240 | –
13 | Cc1cc(SCc2nnc(-c3ccc(OC(F)(F)F)cc3)s2)ccc1OC(C)(C)C(=O)O [Example 27, 2-methyl-2-(2-methyl-4-(((5-(4-(trifluoromethoxy)phenyl)-1,3,4-thiadiazol-2-yl)methyl)thio)phenoxy)propanoic acid] | 595 | –
14 | Cc1cc(SCc2nnc(-c3ccc(OC(F)(F)F)cc3)s2)ccc1OCC(=O)O [Example 25, 2-(2-methyl-4-(((5-(4-(trifluoromethoxy)phenyl)-1,3,4-thiadiazol-2-yl)methyl)thio)phenoxy)acetic acid] | 42 | –
15 | Cc1cc(SCc2nnc(-c3ccc(C(F)(F)F)cc3)s2)ccc1OCC(=O)O [Example 1, 2-(2-methyl-4-(((5-(4-(trifluoromethyl)phenyl)-1,3,4-thiadiazol-2-yl)methyl)thio)phenoxy)acetic acid] | 39.9 | production of TNFα (TNF-α): effectively inhibited; pIKKαβ protein expression (pIKKαβ): effectively reduced; fluorescent signal of labeled macrophages in sole injected with 0.1% CG [2]: lower fluorescent signal; NO concentration produced ([3]; compound 12.5 μM (0 μM control 22.8±1.3 μM)): 18.9 ± 0.3 µM; NO concentration produced ([3]; compound 25 μM (0 μM control 22.8±1.3 μM)): 14.8 ± 0.54 µM; NO concentration produced ([3]; compound 50 μM (0 μM control 22.8±1.3 μM)): 2.41 ± 0.24 µM; cytotoxicity (CCK8 assay, cell proliferation) (RAW 264.7 cells): no cytotoxicity at all concentrations; NF-κb-luciferase luminescent signals (NF-κB): decreased in a concentration-dependent manner; iNOS protein expression (iNOS): significantly suppressed; production of IL-6 (IL-6): effectively inhibited
